Reference: patent US20200270588A1, “GLUCOSYL TRANSFERASE POLYPEPTIDES AND METHODS OF USE” (Syngenta Participations AG, priority 2017, published 2020)
Several values for one entry are separate records, joined by “and”; a condition that tells them apart may be missing. Identical values can stand only once.

Legend:
[1] = test system: transgenic tobacco plants expressing SEQ ID NO: 16; assay: Glass house spray test on tobacco, percent damage; format: in vivo; settings: for tolerance compared with w/t and SEQ ID NO: 1 plants: 200 and 500 g/ha, 14 DAT, several events
Text: Three transgenic populations of about forty tobacco plants and comprising, a glucosyl transferase gene encoding either zmBX8 (SEQ ID NO 2) or zmBX9 (SEQ ID NO 1) were thus produced. A sub-set of about 30 plants were selected on the basis of similar size from each population for spray testing. The plants were then sprayed with 30 g/ha of Compound VI. VI was mixed in water with 0.2-0.25% X-77 surfactant and sprayed from a boom on a suitable track sprayer moving at 2 mph with the nozzle about 2 inches from the plant tops. Spray volume was 200 l/ha. Plants were assessed for damage and scored at 7 and 14 days after treatment (DAT).
In a further example, Zea mays BX8 or BX9 or orthologues of BX8/9, are altered to carry amino acid variants at various positions which increase tolerance to the alcohol and aminal PSII herbicides as described in the example above. DNA sequences that encode these polypeptides (optimized for tobacco or, optionally, codon optimized according to a target crop such as soybean) were prepared for tobacco transformation as described in example 10. […] Transgenic tobacco populations expressing SEQ ID NOs 16 and 17 were generated alongside a population expressing the parental zmBX9 sequence (SEQ ID 1). […] Plants were assessed for damage and scored at 14 days after treatment (DAT). The results are depicted in Table 19 and also in FIG. 6.

[2] = test system: Larkspur bx glucosyl transferase (SEQ ID NO 10); assay: UDP-Glo glucosyl transferase assay, purified enzyme; format: biochemical; settings: 1 mM herbicide V
Method: (§1) Glucosyl transferase activity is assayed via measurement of acceptor substrate-dependent production of UDP from ultrapure UDP-glucose using the Promega UDP-Glo™ method and according to the manufacturer's instructions. Assays are run in 96 well microtiter plates.
(§2) Enzyme, typically at a stock concentration of ˜2 mg/ml is diluted to an appropriate concentration in 50 mM K^+ Hepes buffer at pH7.5 containing 0.5 mg/mL bovine serum albumin (BSA) and 5 ul aliquots of this diluted enzyme added to each well of a Perkin Elmer white ½ area 96 well plate. […] Assays are run for an appropriate time (usually 10 to 60 min) so that the amount of UDP formed lies within the most nearly linear part of the UDP standard curve and are stopped with the addition and mixing of 25 ul UDP-Glo™ detection reagent (prepared as described below). Plates are then incubated at room temperature for 60 minutes and then read in a luminescence plate reader (Perkin Elmer Envision 2130 Multilabel Reader). A UDP standard curve is run alongside each set of assays and reagent blank control assays run with DMSO in place of test herbicide. Typically, 300 pmol of UDP corresponds to a Relative Luminescence Unit (RLU) reading of about 1.5E7 and the response curve between 0 and 600 pmol is fitted to a polynomial function (see for example FIG. 2).
(§3) The UDP-Glo™ reagents are made up and used according to the manufacturer's instructions. Thus, Nucleotide Detection Buffer and ATP are combined to make nucleotide detection reagent (NDR) dispensed into aliquots and frozen to be freshly thawed before use.
(§4) Km and kcat values in respect of UDP-glucose are derived by carrying out experiments to measure initial rates over a suitable range of concentrations of UDP glucose out at a fixed near saturating concentration of acceptor substrate. Best fit values of kcat, Km and kcat/Km are obtained by direct fitting of the data to the Michaelis-Menten equation using Graphpad Prism™ software.
(§5) DNA sequences, optimized for E. coli codon usage, corresponding to SEQ IDs 1-15, encoding BX8 and BX9 orthologue polypeptides derived from a range of species (as depicted in FIG. 1) were synthesized by Genewiz (South Plainfield, USA) with 5′ NdeI and 3′ XhoI restriction sites. The various orthologues were synthesized with either a N-terminal 6×His purification tag or C-terminal 6×His purification tag (i.e. tried both ways to achieve best expression of activity) and cloned into the E. coli expression plasmid pET24a (Novagen) via the NdeI and XhoI restriction sites. Expression, purification and assay was as described in Example 1.
(§6) Assays were carried out as described in Example 1. Partly purified C-terminally his tagged w/t Larkspur enzyme (SEQ ID No 10 with a 6 amino acid C-terminal tag) catalyzed glucosyl transfer to herbicide V at a rate estimated to be about 0.0065/s/pmol at 1 mM herbicide V. The similarly-tagged w/t bx-like enzymes from rye (SEQ ID No 11) and from wheat (SEQ ID No 4) were also active but only at levels close to the detection limit at ˜0.0015/s/pmol. Further examples of assay results from further experiments are depicted in Table 14. All of the proteins were C-terminally his tagged versions of the sequences referenced except for the Zea mays bx8 SEQ ID NO: 2 which was N-terminally his tagged.

[3] = test system: rye bx-like glucosyl transferase (SEQ ID No 11); assay: as above; format: biochemical; settings: herbicide V; close to the detection limit
Method: as §1, §2, §3, §4, §5, §6

[4] = biological target: T1, SEQ ID 35, mutant bx-type glucosyl transferase (Zea mays, UniProt Q8W2B7, A437P); assay: LC/MS glucosyl transferase assay (glucoside peak area), purified enzyme; format: biochemical; settings: about 60 min, ~15 pmol enzyme, relative quantification only
T1 construct: 35; 3.66E+05; 8.20E+07; 5.96E+06; His tag; made in house
T1 sequence (Q8W2B7 whole entry A437P): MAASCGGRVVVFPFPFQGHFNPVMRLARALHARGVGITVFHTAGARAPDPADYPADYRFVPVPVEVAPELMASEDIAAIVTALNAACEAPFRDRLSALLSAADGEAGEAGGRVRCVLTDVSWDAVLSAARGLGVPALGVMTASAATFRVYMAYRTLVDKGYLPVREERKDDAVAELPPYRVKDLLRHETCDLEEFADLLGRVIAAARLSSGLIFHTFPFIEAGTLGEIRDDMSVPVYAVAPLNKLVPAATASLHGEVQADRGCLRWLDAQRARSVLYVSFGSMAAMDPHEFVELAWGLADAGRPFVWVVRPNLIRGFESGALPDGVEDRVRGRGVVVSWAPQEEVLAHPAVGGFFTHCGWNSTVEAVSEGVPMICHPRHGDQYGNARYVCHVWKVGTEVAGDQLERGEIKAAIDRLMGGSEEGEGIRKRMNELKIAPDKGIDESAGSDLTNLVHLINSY

[5] = test system: SEQ ID 43, mutant bx-type glucosyl transferase; assay: as above; format: biochemical; settings: about 60 min, ~15 pmol enzyme, nd = not detectable
[6] = test system: SEQ ID 45, mutant bx-type glucosyl transferase; assay: as above; format: biochemical; settings: about 60 min, ~15 pmol enzyme, nd = not detectable

Row | Structure (SMILES) | tolerance ([1]; 1 kg/ha, events 7937, 7940, 7952, 8039, 8071, 8106 expressing SEQ ID NOs 16 and 17, data not shown) | tolerance compared with w/t and SEQ ID NO: 1 plants [1] | rate of glucosyl transfer [2] | rate of glucosyl transfer [3] [s⁻¹ pmol⁻¹] | integrated peak area of beta-glucoside product [4] | integrated peak area of beta-glucoside product [5] | integrated peak area of beta-glucoside product [6]
1 | CON1C(=O)N(c2cc(C(F)(F)F)ccn2)C(O)[C@@H]1C (some centres unmarked) [Compound VI] | substantially fully tolerant | much superior tolerance | – | – | – | – | –
2 | CN1CC(O)N(c2cc(C(F)(F)F)ccn2)C1=O (centres unmarked) [Compound V] | – | much superior tolerance | about 0.0065 /s/pmol | ~0.0015 | 5.96E+06 and 4.40E+06 | 3.88E+05 and 2.26E+05 | 1.56E+05 and 9.51E+04
